One may read the IC50 as the concentration that inhibits the measured activity by half. Low values mean greater potency in that assay, high ones weaker potency in that assay.

Here are results for one compound from US11459327B1, “Cycloalkyl and hetero-cycloalkyl inhibitors, preparation methods therefor, and use thereof” (Suzhou Zelgen Biopharmaceuticals Co., Ltd., priority 2019, dated 2022).

One experiment relates to NCI-H358 tumor cells. The experiment is described as follows: Pharmacodynamic testing evaluation of anti-tumor activity (H358 CDX tumor model). The class given is in vivo. The settings on record: nude rats. Here is the method:
Pharmacodynamic Testing Evaluation of Anti-Tumor Activity (11358 CDX Tumor Model)
100 uL suspension containing 5×10^6 NCI-H358 tumor cells was subcutaneously injected into the right posterior back of nude rats. The health of the rat was monitored daily. Measurements were started when the tumor grew palpable.

Another experiment deals with MIA PaCa-2 tumor cells. The note with it: MIA PaCa-2 CDX, nude rats. The protocol:
Pharmacodynamic Testing Evaluation of Anti-Tumor Activity (MIA PaCa-2 CDX Tumor Model)
100 uL suspension containing 5×10^6 MIA PaCa-2 tumor cells was subcutaneously injected into the right posterior abdomen of nude rats. The health of the rat was monitored daily. Measurements were started when the tumor grew palpable. The tumor volume calculation formula was adopted: 0.5×L×W^2, where L and W represent tumor length and width, respectively. The tumor grew to ˜200 mm^3, the rats were randomly divided into groups. Rats were intragastrically administrated the corresponding dose (7.5 mg/Kg) of the compound's CMC-Na suspension every day, and their general status was monitored at the same time. The tumor was measured 3 times a week, and the weight was measured twice a week.

The test system of experiment [1] is NCI-H358(KRAS^G12C mutation) cells. The experiment is described as follows: Cell assay of antiproliferative activity (Celltiter-Glo, 5 days) against NCI-H358 cells. In kind it is cell-based. The settings on record: 5 days incubation. In a few lines:
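Cells plated overnight, then given a 10-point compound series (stock dilutions 50 μM to 0.003 μM, 100 nL added per well) and grown 5 days. Luminescence read after 10 min shaking at room temperature. IC50 from curve fitting.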
(In general: Cellular ATP, detected with luciferase, serves as a proxy for viable cell number.)

[2] abbreviates: 30 mg/Kg intragastrically every day, Day 20.
The mark [3] stands for this setting: 7.5 mg/Kg intragastrically every day, Day 20.

Take `C=C(F)C(=O)N1CCN(c2nc(OCC3(CN(C)C)CC3)nc3c2CCN(c2cccc4cccc(Cl)c24)C3)C[C@@H]1CC#N` [Example 27]: the “% TGI” value came out at 89.8% in the experiment with NCI-H358 tumor cells (setting [2]) and 66.6% with MIA PaCa-2 tumor cells (setting [3]). Further, the “% Tumor Growth” value in the experiment with NCI-H358 tumor cells (setting [2]) is listed as 182%; in the experiment with MIA PaCa-2 tumor cells (setting [3]), 145.4%. The “TV Day 0” value is on record as 209 mm^3 with NCI-H358 tumor cells (Day 0 (at grouping), 30 mg/Kg intragastrically every day) and 197 mm^3 in the experiment on MIA PaCa-2 tumor cells (Day 0 (at grouping), 7.5 mg/Kg intragastrically every day). Moreover, the “TV Day 20” value was 471 mm^3 in the experiment on NCI-H358 tumor cells (Day 20, 30 mg/Kg intragastrically every day) and 518 mm^3 in the experiment with MIA PaCa-2 tumor cells (Day 20, 7.5 mg/Kg intragastrically every day). In experiment [1], this compound showed an IC50 of 0.014 µM.
